For one assay, the system named is HER2/Neu protein. Briefly: HER2 degradation assay. The format is cell-based. To be noted: Homo sapiens; 50% degradation of HER2/Neu protein, MCF7 cells, 16 h incubation. How it is done:
MCF7 breast carcinoma cells (ATCC) were grown in Dulbecco's modified Eagle's medium (DMEM) containing 10% fetal bovine serum (FBS) and 10 mM HEPES, and plated in 24 well plates (50% confluent). Twenty-four hrs later (cells are 65–70% confluent), test compounds were added and incubated overnight for 16 h. […] The wells were washed with 1 mL phosphate buffered saline (PBS), and 200 μL trypsin was added to each well. After trypsinization was complete, 50 μL of FBS was added to each well. Then 200 μL cells was transferred to 96 well plates. The cells were pipetted up and down to obtain a single cell suspension. The plates were centrifuged at 2,500 rpm for 1 min using a Sorvall Legend RT™ tabletop centrifuge (Kendro Laboratory Products, Asheville, N.C.). The cells were then washed once in PBS containing 0.2% BSA and 0.2% sodium azide (BA buffer). Phycoerythrin (PE) conjugated anti HER2/Neu antibody (Becton Dickinson, #340552), or PE conjugated anti-keyhole limpet hemacyanin [KLH] (Becton Dickinson, #340761) control antibody was added at a dilution of 1:20 and 1:40 respectively (final concentration was 1 μg/mL) and the cells were pipeted up and down to form a single cell suspension, and incubated for 15 mins. The cells were washed twice with 200 μL BA buffer, and resuspended in 200 μL BA buffer, and transferred to FACSCAN tubes with an additional 250 μL BA buffer. Samples were analyzed using a FACSCalibur™ flow cytometer (Becton Dickinson, San Jose, Calif.) equipped with Argon-ion laser that emits 15 mW of 488 nm light for excitation of the PE fluorochrome. 10,000 events were collected per sample. A fluorescence histogram was generated and the mean fluorescence intensity (MFI) of each sample was determined using Cellquest software. The background was defined as the MFI generated from cells incubated with control IgG-PE, and was subtracted from each sample stained with the HER2/Neu antibody. Cells incubated with DMSO was always done as untreated controls since the compounds were resuspended in DMSO. Percent degradation of HER2 was calculated as follows: % HER2 degraded=[(MFI untreated cells−MFI treated cells)/MFI untreated cell]×100
IC50 is defined as the concentration at which there was 50% degradation of the HER2/Neu protein.

The subject of assay [1] is rHSP90 in the MCF7 cell lysates. Kind of assay: Cell lysate binding assay (biotin-GM competition). To be noted: concentration for 50% inhibition of biotin-GM binding to rHSP90 in MCF7 cell lysates. The procedure:
MCF7 breast carcinoma cell lysates were prepared by douncing in lysing buffer (20 mM HEPES, pH 7.3, 1 mM EDTA, 5 mM MgCl2, 100 mM KCl), and then incubated with or without test compound for 30 mins at 4° C., followed by incubation with biotin-GM linked to BioMag™ streptavidin magnetic beads (Qiagen) for 1 hr at 4° C. The tubes were placed on a magnetic rack, and the unbound supernatant removed. The magnetic beads were washed three times in lysis buffer and boiled for 5 mins at 95° C. in SDS-PAGE sample buffer. Samples were analyzed on SDS protein gels, and Western blots done for rHSP90. Bands in the Western Blots were quantitated using the Bio-rad Fluor-S MultiImager, and the % inhibition of binding of rHSP90 to the biotin-GM was calculated.
The IC50 reported is the concentration of test compound needed to achieve 50% inhibition of the biotin-GM binding to rHSP90 in the MCF7 cell lysates.

In assay [2] the test system is MCF7 breast carcinoma cells. Briefly: MTS assay. The assay is classed as cell-based. To be noted: Homo sapiens, concentration giving 50% viable cell number. The procedure:
MTS assays measures the cytotoxicity of geldanamycin derivatives. MTS (3-(4,5-dimethylthiazol-2-yl)-5-(3-carboxymethoxyphenyl)-2-(4-sulfophenyl)-2H-tetrazolium is a tetrazolium dye that is converted to a formazan product by dehydrogenase enzymes of metabolically active cells (Corey, A. et al. “Use of an aqueous soluble tetrazolium/formazan assay for cell growth assays in culture,” Cancer Commun. 1991, 3, 207–212). Cells were seeded in 96 well plates at 2000 cells/well and allowed to adhere overnight in Dulbecco's modified Eagle's medium supplemented with 10% fetal bovine serum. The final culture volume was 100 μl. Viable cell number was determined by using the Celltiter 96 AQueous Non-radioactive Cell Proliferation Assay (Promega, Madison Wis.). The MTS/PMS (phenazine methosulfate) solution was mixed at a ratio of 20:1, and 20 μL was added per well to 100 μl of culture medium. After 2–4 hours, the formation of the formazan product was measured at 490 nm absorbance using a multiwell plate spectrophotometer. Background was determined by measuring the Abs 490 nm of cell culture medium and MTS-PMS in the absence of cells and was subtracted from all values. Percent viable cells was calculated as follows: % viable cells=(Abs at 490 nm treated cells/Abs at 490 nm untreated cells)×100
The effect of selected compounds of the invention on MCF7 breast carcinoma cells according to the MTS assay is summarized in Table 2. IC50 was defined as the concentration of the compound which gave rise to 50% viable cell number.
Background: Formazan colour is commonly taken as a measure of viable cells.

Molecules are shown by their SMILES.

The IC50 is the point on the concentration scale where inhibition reaches its midpoint. Read a high IC50 as a need for much substance.

Take `COc1c(C)cnc(Cn2ncc3c(Cl)nc(N)nc32)c1C` [Example 7, 4-Chloro-1-(4-methoxy-3,5-dimethyl-pyridin-2-ylmethyl)-1H-pyrazolo[3,4-d]pyrimidin-6-ylamine]: the IC50 in the assay on HER2/Neu protein was 50 nM; in assay [1], 140 nM; in assay [2] it was 130 nM.
On to `COc1c(C)c(Cl)nc(Cn2ncc3c(Cl)nc(N)nc32)c1C` [Example 8, 4-Chloro-1-(6-chloro-4-methoxy-3,5-dimethyl-pyridin-2-ylmethyl)-1H-pyrazolo[3,4-d]pyrimidin-6-ylamine], for which the IC50 in the assay with HER2/Neu protein is 140 nM; in assay [2], 500 nM.
Taken in the same sequence, the figures for `Cc1cnc(Cn2ncc3c(Cl)nc(N)nc32)c(C)c1Cl` [Example 9, 4-Chloro-1-(4-chloro-3,5-dimethyl-pyridin-2-ylmethyl)-1H-pyrazolo[3,4-d]pyrimidin-6-ylamine] were 90 nM and 300 nM.
Take `Cc1cnc(Cn2ncc3c(Cl)nc(N)nc32)c(C)c1Br` [Example 14, 1-(4-Bromo-3,5-dimethyl-pyridin-2-ylmethyl)-4-chloro-1H-pyrazolo[3,4-d]pyrimidin-6-ylamine]: the results for the IC50 (in the assay on HER2/Neu protein; in assay [1]; in assay [2]) were 90 nM, 110 nM and 1000 nM, respectively.
Regarding `Cc1c[n+]([O-])c(Cn2ncc3c(Cl)nc(N)nc32)c(C)c1Br` [Example 15, 1-(4-Bromo-3,5-dimethyl-1-oxy-pyridin-2-ylmethyl)-4-chloro-1H-pyrazolo[3,4-d]pyrimidin-6-ylamine], the IC50 with HER2/Neu protein was found to be 900 nM.
Take `COc1c(C)cnc(Cn2nc(C)c3c(Cl)nc(N)nc32)c1C` [Example 23, 4-Chloro-1-(4-methoxy-3,5-dimethyl-pyridin-2-ylmethyl)-3-methyl-1H-pyrazolo[3,4-d]pyrimidin-6-ylamine]: the IC50 with HER2/Neu protein came out at 40 nM; in assay [2], 100 nM.
Turning to `Cc1c[n+]([O-])c(Cn2nc(C)c3c(Cl)nc(N)nc32)c(C)c1Br` [Example 24, 1-(4-Bromo-3,5-dimethyl-1-oxy-pyridin-2-ylmethyl)-4-chloro-3-methyl-1H-pyrazolo[3,4-d]pyrimidin-6-ylamine], the IC50 in the assay on HER2/Neu protein came out at 30 nM; in assay [2], 1000 nM.
Taken in the same sequence, the figures for `Cc1c[n+]([O-])c(Cn2nc(C)c3c(Cl)nc(N)nc32)c(C)c1Cl` [Example 25, 4-Chloro-1-(4-chloro-3,5-dimethyl-1-oxy-pyridin-2-ylmethyl)-3-methyl-1H-pyrazolo[3,4-d]pyrimidin-6-ylamine] were 30 nM and 300 nM.
On to `Cc1cnc(Cn2nc(C)c3c(Cl)nc(N)nc32)c(C)c1Cl` [Example 26, 4-Chloro-1-(4-chloro-3,5-dimethyl-pyridin-2-ylmethyl)-3-methyl-1H-pyrazolo[3,4-d]pyrimidin-6-ylamine], for which the results for the IC50 (in the assay on HER2/Neu protein; in assay [1]) were 50 nM and 90 nM, respectively.
Regarding `Cc1cnc(Cn2nc(C)c3c(Cl)nc(N)nc32)c(C)c1Br` [Example 28, 1-(4-Bromo-3,5-dimethyl-pyridin-2-ylmethyl)-4-chloro-3-methyl-1H-pyrazolo[3,4-d]pyrimidin-6-ylamine], the IC50 was found to be 40 nM in the assay on HER2/Neu protein and 1000 nM in assay [2].
As to `CCc1nn(Cc2ncc(C)c(OC)c2C)c2nc(N)nc(Cl)c12` [Example 29, 4-Chloro-3-ethyl-1-(4-methoxy-3,5-dimethyl-pyridin-2-ylmethyl)-1H-pyrazolo[3,4-d]pyrimidin-6-ylamine], the IC50 in the assay on HER2/Neu protein was found to be 850 nM; in assay [1], 100 nM; in assay [2], 1000 nM.
Consider `CCc1nn(Cc2ncc(C)c(Cl)c2C)c2nc(N)nc(Cl)c12` [Example 30, 4-Chloro-1-(4-chloro-3,5-dimethyl-pyridin-2-ylmethyl)-3-ethyl-1H-pyrazolo[3,4-d]pyrimidin-6-ylamine], for which the IC50 with HER2/Neu protein worked out at 110 nM; in assay [2], 1000 nM.
The corresponding values for `COc1c(C)cnc(Cn2nc(C(C)C)c3c(Cl)nc(N)nc32)c1C` [Example 31, 4-Chloro-3-isopropyl-1-(4-methoxy-3,5-dimethyl-pyridin-2-ylmethyl)-1H-pyrazolo[3,4-d]pyrimidin-6-ylamine] are 50 nM and 300 nM.
Taken in the same sequence, the figures for `COc1c(C)cnc(Cn2nc(-c3ccccc3)c3c(Cl)nc(N)nc32)c1C` [Example 32, 4-Chloro-1-(4-methoxy-3,5-dimethyl-pyridin-2-ylmethyl)-3-phenyl-1H-pyrazolo[3,4-d]pyrimidin-6-ylamine] were 40 nM and 80 nM.
The corresponding values for `Cc1cnc(Cn2nc(-c3ccccc3)c3c(Cl)nc(N)nc32)c(C)c1Cl` [Example 33, 4-Chloro-1-(4-chloro-3,5-dimethyl-pyridin-2-ylmethyl)-3-phenyl-1H-pyrazolo[3,4-d]pyrimidin-6-ylamine] are 160 nM and 600 nM.
Regarding `Cc1cnc(Cn2nc(-c3ccccc3)c3c(Cl)nc(N)nc32)c(C)c1Br` [Example 34, 1-(4-Bromo-3,5-dimethyl-pyridin-2-ylmethyl)-4-chloro-3-phenyl-1H-pyrazolo[3,4-d]pyrimidin-6-ylamine], the values for the IC50 (in the assay on HER2/Neu protein; in assay [2]) were 120 nM and 1000 nM, respectively.
As for `Cc1c[n+]([O-])c(Cn2nc(-c3ccccc3)c3c(Cl)nc(N)nc32)c(C)c1Cl` [Example 35, 4-Chloro-1-(4-chloro-3,5-dimethyl-1-oxy-pyridin-2-ylmethyl)-3-phenyl-1H-pyrazolo[3,4-d]pyrimidin-6-ylamine], the IC50 in the assay with HER2/Neu protein stood at 20 nM; in assay [1], 80 nM; in assay [2] it was 1000 nM.

(Values after patent US7148228B2, “Pyrazolopyrimidines and related analogs as HSP90-inhibitors” (Conforma Therapeutics Corporation, priority 2003, dated 2006).)
